Molecules are shown by their SMILES. The source made the active and inactive calls. The calls are words filed in the database; no cut-off is given here.

Experiment [1] relates to Trypanosoma cruzi. Nature of the experiment: Antitrypanosomal activity against Trypanosoma cruzi Dm28c epimastigotes assessed as non-viable epimastigotes at 10 umol/L after 4 hrs by MTT assay relative to untreated control. It is filed as functional. For orientation: Formazan colour is commonly taken as a measure of viable cells.
The subject of experiment [2] is Trypanosoma cruzi. The experiment in a line: Antitrypanosomal activity against Trypanosoma cruzi Dm28c epimastigotes assessed as non-viable epimastigotes at 100 umol/L after 4 hrs by MTT assay relative to untreated control. Type of experiment: functional.
Experiment [3] is described as follows: Antioxidant activity assessed as hydroxyl radical scavenging activity after 5 mins by ESR spectroscopy. Details: concentration or dose not given beside the values.
Experiment [4] can be described thus: Antioxidant activity assessed as compound compete with DMPO for hydroxyl radicals by ESR assay. Type of experiment: functional.

In the case of `Cc1ccc2oc(=O)c(C(=O)c3ccc(O)c(O)c3)cc2c1`, the Activity is 27.9% with Trypanosoma cruzi [1], 47.9% in the experiment with Trypanosoma cruzi [2] and 82.1% in experiment [3].

In the case of `O=C(c1ccc(O)c(O)c1)c1cc2c(O)cc(O)cc2oc1=O`, the result in the experiment with Trypanosoma cruzi [1] and in the experiment with Trypanosoma cruzi [2] was inactive. Also, the Activity in experiment [3] came to 84.2%.

For the compound `CC1CS(=O)(=O)CCN1/N=C/c1ccc([N+](=O)[O-])o1` (stereo not drawn) [NIFURTIMOX], the Activity with Trypanosoma cruzi [1] stood at 52.5%; in the experiment with Trypanosoma cruzi [2], 100%.

In the case of `O=C(c1ccc(O)c(O)c1)c1cc2cc(O)ccc2oc1=O`, the Activity in the experiment on Trypanosoma cruzi [1] amounted to 18.9%; in the experiment on Trypanosoma cruzi [2] it was 46.4%; in experiment [3], 84.8%.

In the case of `O=C(c1ccc(O)c(O)c1)c1cc2cc(Br)cc(O)c2oc1=O`, the results for the Activity (in the experiment with Trypanosoma cruzi [1]; in the experiment with Trypanosoma cruzi [2]; in experiment [3]) were 9.5%, 24.1% and 90.9%, respectively. Moreover, in experiment [4], the outcome was Active.

Take `O=C(c1ccc(O)c(O)c1)c1cc2ccccc2oc1=O`: the values for the Activity (in the experiment with Trypanosoma cruzi [1]; with Trypanosoma cruzi [2]; in experiment [3]) were 23.8%, 38.7% and 84.6%, respectively.

The values above are taken from ChEMBL document CHEMBL3217530, “Synthesis of coumarinchalcone hybrids and evaluation of their antioxidant and trypanocidal properties” (2013).
